Values of other authors as cited in US9707259B2, “Magnetic diffusional patch” (METUAS MEDIKAL SAGLIK HIZ-METLERI DANISMANLIK IHRACAT …, priority 2011, dated 2017).

Key:
[1] = tested on: cyclooxygenase (COX)
[2] = tested on: lipooxygenase enzymes
[3] = tested on: thromboxane and leukotriene B4 synthesis
[4] = tested on: rheumatoid arthritis
[5] = tested on: activated human monocytes
[6] = experimental animals, rheumatoid arthritis

Row | Compound | effect on cyclooxygenase (COX) enzyme [1] | effect on lipooxygenase enzyme [2] | synthesis of thromboxane and leukotriene B4 from eicosanoids [3] | levels of pro-inflammation cytokines TNF-alpha and interleukin (IL)-1beta [4, 6] | severity of the disease [4, 6] | induced arthritis with the aid of collagen ([4]; experimental studies) | inflammation mediators [5]
1 | CC1=CC(=O)C(C(C)C)=CC1=O [thymoquinone] | blocks | blocks | inhibits | reduction | decreases | able to suppress | 
2 | CC1=CCC(O)(C(C)C)CC1 (stereo not shown) [4-terpineol] |  |  |  |  |  |  | suppress
